Results: doi:10.1101/2021.10.07.463234v2 (biorxiv, 2021)
Structures can show the parent of a compound that is named as a salt.

target: SARS-CoV-2 Mac1 (Severe acute respiratory syndrome coronavirus 2, UniProt P0DTD1); assay: biochemical; details: 100 µM; inhibitor

Structure (SMILES) | %inhibition
Cn1c(=O)cc(N2CCC[C@@H](N)C2)n(Cc2cc(F)ccc2C#N)c1=O [Trelagliptin] | 0%
CN1CCc2nc(C(=O)N[C@@H]3C[C@@H](C(=O)N(C)C)CC[C@@H]3NC(=O)C(=O)Nc3ccc(Cl)cn3)sc2C1 [Edoxaban] | 4.891%
C[C@@H](O)[C@H]1C(=O)N2C(C(=O)O)=C(S[C@@H]3CN[C@H](CNS(N)(=O)=O)C3)[C@H](C)[C@H]12 [Doripenem] | 1.128%
COc1ccc2cc3[n+](cc2c1OC)CCc1cc2c(cc1-3)OCO2 [Berberine chloride] | 8.063%
CCOC(=O)C1=C[C@@H](OC(CC)CC)[C@H](NC(C)=O)[C@@H](N)C1 [Oseltamivir Phosphate] | 4.261%
CC(=O)[C@@]1(O)CC[C@H]2[C@@H]3C[C@H](C)C4=CC(=O)C=C[C@]4(C)[C@@]3(F)[C@@H](O)C[C@@]21C [Fluorometholone] | 0%
COc1ccccc1OCCNCC(O)COc1cccc2[nH]c3ccccc3c12 (stereo not shown) [Carvedilol Phosphate] | 0%
CCOC(=O)C1=C(COCCN)NC(C)=C(C(=O)OC)C1c1ccccc1Cl (stereo not shown) [Amlodipine Besylate] | 25.29%
Fc1ccc([C@@H]2CCNC[C@H]2COc2ccc3c(c2)OCO3)cc1 [Paroxetine HCl] | 28.69%
CC1(C)S[C@@H]2[C@H](NC(=O)[C@H](N)c3ccccc3)C(=O)N2[C@H]1C(=O)O [Ampicillin Trihydrate] | 20.11%
COCCc1ccc(OCC(O)CNC(C)C)cc1 (stereo not shown) [Metoprolol succinate] | 1.216%
Cc1ccc(Nc2nccc(N(C)c3ccc4c(C)n(C)nc4c3)n2)cc1S(N)(=O)=O [Pazopanib] | 12.94%
CC1=NN(c2ccc(C)c(C)c2)C(=O)/C1=N\Nc1cccc(-c2cccc(C(=O)O)c2)c1O [Eltrombopag] | 0%
NCCc1c[nH]cn1 [Histamine 2HCl] | 6.627%

same assay, conditions: read-out: %inhibition

Structure (SMILES) | inhibition at 100 µM
CCN1CCN(C(=O)N[C@@H](C(=O)N[C@@H]2C(=O)N3C(C(=O)O)=C(CSc4nnnn4C)CS[C@H]23)c2ccc(O)cc2)C(=O)C1=O [Cefoperazone] | 0%
CCN(CC)CCOC(=O)C(O)(c1ccccc1)c1ccccc1 [Benactyzine hydrochloride] | 0%
Cc1cc(S(=O)(=O)O)c2c(C)ccc(C(C)C)cc1-2 [Sodium gualenate] | 12.6%
CCc1oc2ccccc2c1C(=O)c1cc(Br)c(O)c(Br)c1 [Benzbromarone] | 6.57%
COC(=O)Nc1nc2cc(C(=O)c3ccc(F)cc3)ccc2[nH]1 [Flubendazole] | 4.36%
O=C1c2cccc(O)c2C(=O)c2c(O)cccc21 [Danthron] | 0%
Oc1ccc(Cl)c2cccnc12 [Cloxiquine] | 8.06%
O=C(c1ccc(OCCN2CCCCC2)cc1)c1c(-c2ccc(O)cc2)sc2cc(O)ccc12 [Raloxifene HCl] | 63.1%
CN(C)CCCC1(c2ccc(F)cc2)OCc2cc(C#N)ccc21 (stereo not shown) [Citalopram HBr] | 0%
Cc1ccc(C(=O)C(C)CN2CCCCC2)cc1 (stereo not shown) [Tolperisone HCl] | 8.81%
COc1cc([C@@H]2c3cc4c(cc3[C@@H](O[C@@H]3O[C@@H]5CO[C@@H](c6cccs6)O[C@H]5[C@H](O)[C@H]3O)[C@H]3COC(=O)[C@H]23)OCO4)cc(OC)c1O [Teniposide] | 12.8%
Cc1ccc(C(=O)c2cc(O)c(O)c([N+](=O)[O-])c2)cc1 [Tolcapone] | 0%
COc1cc2c(cc1OC)CC(=O)N(CCCN(C)C[C@H]1Cc3cc(OC)c(OC)cc31)CC2 [Ivabradine HCl] | 0%
Cc1cncc(CN2CCC(=C3c4ccc(Cl)cc4CCc4cccnc43)CC2)c1 [Rupatadine Fumarate] | 24.3%
O=C1Nc2ccc(Cl)cc2[C@@](C#CC2CC2)(C(F)(F)F)O1 [Efavirenz] | 0%
C=CC(=O)Nc1cccc(Nc2nc(Nc3ccc(N4CCN(C(C)=O)CC4)cc3OC)ncc2C(F)(F)F)c1 [Rociletinib (CO-1686, AVL-301)] | 0%
CCCCC[C@H](O)/C=C/[C@H]1[C@H](O)CC(=O)[C@@H]1C/C=C\CCCC(=O)O [Prostaglandin E2 (PGE2)] | 8.12%
C[C@]12C=CC(=O)C=C1CC[C@@H]1[C@@H]2C(=O)C[C@@]2(C)[C@H]1CC[C@]2(O)C(=O)CO [Prednisone] | 0%
Nc1ccc(S(=O)(=O)Nc2ccnn2-c2ccccc2)cc1 [Sulfaphenazole] | 0%
Nc1ccc(S(=O)(=O)c2ccc(N)cc2)cc1 [Dapson] | 0%
CN1CCC(=C2c3ccccc3CCn3c(C=O)cnc32)CC1 [Alcaftadine] | 0%
C[C@]12CCC(=O)C=C1[C@@H]1C[C@@H]1[C@H]1[C@@H]3[C@@H]4C[C@@H]4[C@@]4(CCC(=O)O4)[C@@]3(C)CC[C@@H]12 [Drospirenone] | 0%

Structure (SMILES) | inhibition at 100 µM
N[C@H](Cc1ccccc1)C(=O)O [D-Phenylalanine] | 4.94%
O=C(c1ccccc1)c1ccc2n1CCC2C(=O)O (stereo not shown) [Ketorolac] | 11.8%
Cc1c(-c2cnccn2)ssc1=S [Oltipraz] | 0%
Nc1nc(Cl)nc2c1ncn2[C@@H]1O[C@H](CO)[C@@H](O)[C@@H]1F [Clofarabine] | 44.7%
CN(C)CCN(Cc1ccccc1)c1ccccn1 [Tripelennamine HCl] | 0%
Cc1noc(NS(=O)(=O)c2ccc(N)cc2)c1C [Sulfisoxazole] | 20.4%
Cc1c(C(N)=O)cc([N+](=O)[O-])cc1[N+](=O)[O-] [Dinitolmide] | 6.05%
CCCc1cc(=O)[nH]c(=S)[nH]1 [Propylthiouracil] | 11.2%
NC[C@H]1O[C@H](O[C@H]2[C@H](O)[C@@H](O[C@H]3O[C@H](CO)[C@@H](O)[C@H](N)[C@H]3O)[C@H](N)C[C@@H]2N)[C@H](O)[C@@H](O)[C@@H]1O [Kanamycin sulfate] | 4.88%
Oc1ccc(OCc2ccccc2)cc1 [Monobenzone] | 0%
c1ccc2c(c1)Nc1ccccc1S2 [Phenothiazine] | 18.2%
CC[C@H](C)[C@H](N)C(=O)O [isoleucine] | 0%
CN(C)Cc1ccc(S(=O)(=O)n2ccc(/C=C/C(=O)NO)c2)cc1 [Resminostat] | 18.5%
CCOc1ccc2ccccc2c1C(=O)N[C@@H]1C(=O)N2[C@@H]1SC(C)(C)[C@@H]2C(=O)O [Nafcillin Sodium] | 0%
CC(C)C[C@H](NC(=O)[C@@H](NC(=O)c1cccc(-c2ccccc2)n1)[C@@H](C)O)B(O)O [Delanzomib (CEP-18770)] | 0%
CNCCCN1c2ccccc2CCc2ccccc21 [Desipramine Hydrochloride] | 15.3%
NCCCC[C@H](N)C(=O)O [L-Lysine hydrochloride] | 9.1%
O=C(CCCN1CC=C(n2c(=O)[nH]c3ccccc32)CC1)c1ccc(F)cc1 [Droperidol] | 1.08%
NC(=O)c1ncn([C@@H]2O[C@H](CO)[C@@H](O)[C@H]2O)c1N [AICAR (Acadesine)] | 14.6%
CCCc1nc(C(C)(C)O)c(C(=O)OCc2oc(=O)oc2C)n1Cc1ccc(-c2ccccc2-c2nnn[nH]2)cc1 [Olmesartan Medoxomil] | 0%
NC(=O)c1cc(N2CC2)c([N+](=O)[O-])cc1[N+](=O)[O-] [CB1954] | 5.18%
CC(=O)OCC(=O)[C@@]1(O)CC[C@H]2[C@@H]3CCC4=CC(=O)CC[C@]4(C)[C@@]3(F)[C@@H](O)C[C@@]21C [Fludrocortisone acetate] | 0%

Structure (SMILES) | inhibition at 100 µM
CS(=O)(=O)Nc1ccc([N+](=O)[O-])cc1Oc1ccccc1 [Nimesulide] | 0%
CCOC(=O)C1=C(COCCN)NC(C)=C(C(=O)OC)C1c1ccccc1Cl (stereo not shown) [Amlodipine] | 25.5%
O=C(O)CCc1nc2ccccc2[nH]1 [Procodazole] | 7.67%
CCN(CC)C(=O)N1CCN(C)CC1 [Diethylcarbamazine citrate] | 0%
CCCC(C(=O)OCCN(CC)CC)(c1ccccc1)c1ccccc1 [Proadifen HCl] | 15.2%
Cc1nc(-c2ccc(OCC(C)C)c(C#N)c2)sc1C(=O)O [Febuxostat] | 4.8%
CCCCCC(=O)O[C@]1(C(C)=O)CC[C@H]2[C@@H]3CCC4=CC(=O)CC[C@]4(C)[C@H]3CC[C@@]21C [Hydroxyprogesterone caproate] | 8.48%
Cc1ccc(Cl)c(Nc2ccccc2C(=O)O)c1Cl [Meclofenamate Sodium] | 5.23%
C[C@H](Oc1cc(-c2cnn(C3CCNCC3)c2)cnc1N)c1c(Cl)ccc(F)c1Cl [(S)-crizotinib] | 4.9%
Cc1cc(=O)[nH]c(=S)[nH]1 [Methylthiouracil] | 0%
CCCC(=O)Nc1ccc(OCC(O)CNC(C)C)c(C(C)=O)c1 (stereo not shown) [Acebutolol HCl] | 0%
c1ccc([C@H]2CN3CCSC3=N2)cc1 [Levamisole hydrochloride] | 0%
NC(=O)N1c2ccccc2C=Cc2ccccc21 [Carbamazepine] | 0%
CC(=O)Oc1ccc(C(c2ccc(OC(C)=O)cc2)c2ccccn2)cc1 [Bisacodyl] | 0%
COc1cc(/C=C/C(=O)CC(=O)/C=C/c2ccc(O)c(OC)c2)ccc1O [Curcumin] | 1.88%
O=C(O)c1cn(-c2ccc(F)cc2)c2cc(N3CCNCC3)c(F)cc2c1=O [Sarafloxacin HCl] | 15.7%
COc1nc(C)nc(Cl)c1NC1=NCCN1 [Moxonidine] | 0%
O=C(CCCCCCC(=O)Nc1ccccc1)NO [Vorinostat (SAHA, MK0683)] | 0%
CNC(=O)c1cnn(-c2nc(N)c3ncn([C@@H]4O[C@H](CO)[C@@H](O)[C@H]4O)c3n2)c1 [Regadenoson] | 0%
CN(Cc1cc(Br)cc(Br)c1N)C1CCCCC1 [Bromhexine HCl] | 0%
C/C(=C\c1csc(C)n1)[C@@H]1C[C@@H]2O[C@]2(C)CCC[C@H](C)[C@H](O)[C@@H](C)C(=O)C(C)(C)[C@@H](O)CC(=O)N1 [Ixabepilone (BMS-247550)] | 5.68%
